Results: patent publication US12336986B2, “Treatment and prevention of ocular neurodegenerative disorder” (The Jackson Laboratory, priority 2015, dated 2025)

What was measured:
sciatic nerve axons = settings: blocking NAMPT; cited from earlier work
zebrafish = settings: two-photon-laser axotomy; cited from earlier work
D2 mice = settings: topical administration; cited from earlier work
[1] = system: ganglion cell layer cells (GCL cells); assay: Whole retina explant culture (axotomy culture model), DAPI nuclei; format: cell-based, mouse
From the text: Mice were euthanized, eyes enucleated and placed immediately into ice-cold HBSS. Retinas were dissected from the eyes in HBSS on ice, flat-mounted with the ganglion cell layer up on a cell culture insert (Millipore), and submerged in tissue culture media containing Neurobasal-A, 1% penicillin-streptomycin (10000 U/mL), 1% glutamine (100×), 1% N-2 (100×) and 1% B-27 (50×) (all ThermoFisher Scientific).
For drug treated retinas tissue culture media was made as above and supplemented with one of the following compounds (all Sigma unless otherwise): β-NAD, NAM (PanReac AppliChem), β-NMN. Retinas were incubated in 6-well plates at 37° C. and 4% CO2 for 5 days before being fixed in 4% PFA and stained with DAPI. (For untreated “Day 0” controls, retinas were dissected and placed straight into 4% PFA.) Retinas were imaged on a Zeiss AxioObserver.

PQQ tolerability in mice = format: in vivo, mouse
[2] = survey of 6000 patients on high doses; cited from earlier work
dorsal root ganglion = settings: U.S. Pat. No. 7,776,326; cited from earlier work
[3] = axotomized retinas in culture, 5 days

O=C(/C=C/c1cccnc1)NCCCCC1CCN(C(=O)c2ccccc2)CC1 [FK866]
axon degeneration following axonal injury (sciatic nerve axons): potentially inhibits this axon degeneration | axon degeneration (zebrafish): potently delayed axon degeneration

CC(C)OC(=O)CCC/C=C\C[C@@H]1[C@@H](CC[C@@H](O)CCc2ccccc2)[C@H](O)C[C@@H]1O [Latanoprost]
IOP (D2 mice): lowers IOP | risk of developing neurodegeneration (D2 mice): reduces the risk of developing neurodegeneration

O=C(O)c1cc(C(=O)O)c2c(n1)C(=O)C(=O)c1cc(C(=O)O)[nH]c1-2 [PQQ, pyrroloquinoline quinone]
nuclear diameter shrinkage (DAPI-labeled nuclei) ([1]; axotomized D2 retinas in culture, 5 days post-axotomy, NAM 100 mM and 500 mM): prevents | ganglion cell layer cell death / cell density [1, 3]: prevents | protective effect in retina tissue culture [1, 3]: protective in retina tissue culture | tolerated dose (PQQ tolerability in mice): ≥ 2,000 mg/kg/day

CC12CC3CC(C)(C1)CC(N)(C3)C2 [memantine]
IOP (D2 mice): lowers IOP | risk of developing neurodegeneration (D2 mice): reduces the risk of developing neurodegeneration

O=C(O)c1cccnc1 [nicotinic acid]
cases of jaundice reported [2]: 3 | axonal degeneration after axotomy (dorsal root ganglion): did not work to diminish axonal degeneration

CC(C)(C)NC[C@H](O)COc1nsnc1N1CCOCC1 [timolol]
IOP (D2 mice): lowers IOP | risk of developing neurodegeneration (D2 mice): reduces the risk of developing neurodegeneration

NC(=O)c1ccc[n+]([C@@H]2O[C@H](COP(=O)([O-])O)[C@@H](O)[C@H]2O)c1 [β-NMN, nicotinamide mononucleotide]
protective effect in retina tissue culture [1, 3]: significant protective effects
